Measurements reported in PMC12000418, “Ubiquitin is directly linked via an ester to protein-conjugated mono-ADP-ribose” (The EMBO Journal, 2025).

Experiments:
DTX2 = target: T1, DTX2 (Homo sapiens, UniProt Q86UW9); assay: In vitro ubiquitylation of NAD+ ([…]) by purified DTX2 and E2~Ub, silver-stained gel; type: biochemical
T1 construct: RING-DTC domain, residues 389–622; with UBE2D3~Ub conjugate

PARP10 = target: T2, PARP10 (Homo sapiens, UniProt Q53GL7); assay: Dose-response inhibition of GFP-PARP10 auto-MARylation in HEK […] cells, western blot; type: cell-based
T2 construct: GFP-PARP10, doxycycline-inducible in HEK 293 cells
T2 sequence (Q53GL7 1-1025): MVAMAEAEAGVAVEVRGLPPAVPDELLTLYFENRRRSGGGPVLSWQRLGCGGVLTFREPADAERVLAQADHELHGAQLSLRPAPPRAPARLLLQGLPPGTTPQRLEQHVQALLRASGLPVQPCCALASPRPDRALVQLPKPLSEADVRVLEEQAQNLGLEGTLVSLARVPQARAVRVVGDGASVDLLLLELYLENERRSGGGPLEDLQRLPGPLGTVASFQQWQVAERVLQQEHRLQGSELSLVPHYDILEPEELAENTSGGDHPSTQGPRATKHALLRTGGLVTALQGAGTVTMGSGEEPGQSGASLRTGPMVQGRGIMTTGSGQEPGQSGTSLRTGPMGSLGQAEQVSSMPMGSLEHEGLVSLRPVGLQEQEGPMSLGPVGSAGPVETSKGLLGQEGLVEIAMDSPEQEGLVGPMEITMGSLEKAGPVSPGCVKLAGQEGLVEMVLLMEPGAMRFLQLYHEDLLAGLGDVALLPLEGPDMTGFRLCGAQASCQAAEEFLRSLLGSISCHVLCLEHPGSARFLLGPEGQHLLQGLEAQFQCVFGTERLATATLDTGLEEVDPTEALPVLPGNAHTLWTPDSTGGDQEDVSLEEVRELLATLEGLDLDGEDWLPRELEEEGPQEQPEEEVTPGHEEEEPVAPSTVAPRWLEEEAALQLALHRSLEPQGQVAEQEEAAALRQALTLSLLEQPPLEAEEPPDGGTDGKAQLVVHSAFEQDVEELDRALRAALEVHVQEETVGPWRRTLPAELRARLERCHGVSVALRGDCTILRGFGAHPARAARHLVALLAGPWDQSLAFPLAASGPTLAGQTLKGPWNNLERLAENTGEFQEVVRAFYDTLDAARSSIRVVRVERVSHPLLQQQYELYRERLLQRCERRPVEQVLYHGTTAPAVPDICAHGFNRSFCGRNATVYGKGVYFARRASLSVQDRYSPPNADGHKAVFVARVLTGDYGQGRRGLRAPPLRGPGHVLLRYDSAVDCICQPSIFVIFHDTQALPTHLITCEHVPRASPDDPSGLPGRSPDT

T1 sequence (Q86UW9 389-622): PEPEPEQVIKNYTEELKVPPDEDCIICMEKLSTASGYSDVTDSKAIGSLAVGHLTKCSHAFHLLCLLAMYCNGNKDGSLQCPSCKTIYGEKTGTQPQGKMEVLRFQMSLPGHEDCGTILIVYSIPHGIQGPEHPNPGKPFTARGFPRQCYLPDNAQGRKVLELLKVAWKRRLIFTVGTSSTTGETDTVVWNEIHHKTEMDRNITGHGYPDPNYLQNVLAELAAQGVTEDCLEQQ
T1 sequence (P61077 whole entry partner, the tested form may be a part): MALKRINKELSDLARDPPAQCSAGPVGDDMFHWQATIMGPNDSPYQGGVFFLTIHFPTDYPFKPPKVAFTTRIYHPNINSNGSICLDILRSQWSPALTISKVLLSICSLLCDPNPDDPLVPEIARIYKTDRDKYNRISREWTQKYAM

| IC50 (PARP10) | Compound | In vitro ubiquitylation of NAD+ (0.2 mM) by purified DTX2 and E2~Ub, silver-stai (DTX2) |
| --- | --- | --- |
|  | NC(=O)c1ccc[n+]([C@@H]2O[C@H](COP(=O)([O-])OP(=O)(O)OC[C@H]3O[C@@H](n4cnc5c(N)ncnc54)[C@H](O)[C@@H]3O)[C@@H](O)[C@H]2O)c1 [NAD^+] | DTX2 could readily conjugate Ub to NAD^+ and ADPr to form Ub ester-linked NAD^+ (NAD^+-Ube) |
| 51.4 nM | RBN010860 |  |
